Structures are written as SMILES.

In this assay the target is T1, TLR7 (Homo sapiens, UniProt Q9NYK1).
T1 construct: Fresh blood was collected from normal human donors; endogenous in cells; host or cells: human PBMCs from fresh donor blood
T1 sequence (Q9NYK1 27-1049): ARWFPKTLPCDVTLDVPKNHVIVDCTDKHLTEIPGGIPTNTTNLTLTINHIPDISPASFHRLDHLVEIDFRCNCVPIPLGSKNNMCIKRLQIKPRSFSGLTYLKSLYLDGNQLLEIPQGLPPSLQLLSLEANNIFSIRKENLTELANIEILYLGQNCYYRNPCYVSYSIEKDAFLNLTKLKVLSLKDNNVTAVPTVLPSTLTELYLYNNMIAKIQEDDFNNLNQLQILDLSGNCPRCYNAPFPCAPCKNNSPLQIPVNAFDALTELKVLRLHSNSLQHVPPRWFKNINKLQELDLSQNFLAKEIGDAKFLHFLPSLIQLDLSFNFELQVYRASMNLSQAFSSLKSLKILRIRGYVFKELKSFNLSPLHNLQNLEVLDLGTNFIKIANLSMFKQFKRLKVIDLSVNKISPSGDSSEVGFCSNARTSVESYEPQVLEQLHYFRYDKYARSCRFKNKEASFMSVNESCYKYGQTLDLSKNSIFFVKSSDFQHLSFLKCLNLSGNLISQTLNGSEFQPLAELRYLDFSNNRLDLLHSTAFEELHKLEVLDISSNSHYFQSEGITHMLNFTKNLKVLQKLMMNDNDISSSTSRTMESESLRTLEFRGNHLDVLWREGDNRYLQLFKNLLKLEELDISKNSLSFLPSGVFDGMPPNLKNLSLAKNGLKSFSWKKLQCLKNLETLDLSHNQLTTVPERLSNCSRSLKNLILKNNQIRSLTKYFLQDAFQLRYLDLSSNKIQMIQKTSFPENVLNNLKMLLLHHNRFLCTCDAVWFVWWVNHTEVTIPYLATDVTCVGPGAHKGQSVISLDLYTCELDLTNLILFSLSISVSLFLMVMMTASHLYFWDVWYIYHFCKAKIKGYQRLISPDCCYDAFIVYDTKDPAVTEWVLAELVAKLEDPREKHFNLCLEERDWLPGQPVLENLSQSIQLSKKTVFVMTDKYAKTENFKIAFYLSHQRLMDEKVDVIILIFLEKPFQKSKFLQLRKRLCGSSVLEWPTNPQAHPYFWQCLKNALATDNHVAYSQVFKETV
Briefly: huPBMC TLR7 Antagonist IFNα Assay. In kind it is cell-based. Conditions: human PBMCs stimulated with ssRNA40 10 μg/mL (DOTAP), 14-16 hrs; IFNα2b AlphaLISA read-out. As for the experimental part: Compounds were generally serially diluted (1/3) in DMSO and plated on sterile 384 well tissue culture plates and stored until ready for use. Each ten-point dilution was typically plated in triplicate in parallel rows.
Fresh blood was collected from normal human donors underwritten informed consent in heparinized syringes on the morning of the assay. The blood was diluted in RPMI-1640 medium and the white blood cells were separated from red blood cells by centrifugation (800 g 15′ 0 acceleration, 0 brake) on a Ficoll cushion. Peripheral blood mononuclear cells (PBMCs) were separated from platelets by a series of low-speed centrifugations (1000RPM 10′) in PBS+5% HI—FBS and 1 mM EDTA. Purified PBMCs were re-suspended in assay medium (RPMI-1640 w Glutamax (Invitrogen) supplemented with 5% HI—FBS, 10 mM HEPES, 50 uM β-mercaptoethanol, and 100 mG/L penicillin/streptomycin cocktail). Viable PBMCs were counted on a hemacytometer and kept on ice until ready for plating.
A 4× concentration (4 ug/ml or 40 ug/ml for TLR8 or TLR7 assays, respectively) of the TLR7/8 agonist ssRNA40 (IDT) was complexed with 10% DOTAP (Roche) in assay medium for 30 min prior to addition to the PBMC suspension (5 million cells/ml). After addition, the final concentration of ssRNA40 in the TLR7/8 stimulated PBMC suspension was 1 μg/ml for TLR8 assay, and 10 μg/mL for the TLR7 assay. The final DOTAP concentration was 2.5%. Diluted PBMCs (5 million cells/ml) were treated with 4×TLR9 agonist ODN2216 (Invivogen). Final concentration of ODN2216 in TLR9 stimulated PBMC suspension was 0.3 μM.
Agonist stimulated PBMCs were plated on the compound treated 384 well plates at 150,000 cells/well. Un-stimulated PBMCs were plated as controls on each plate. Plating volume was 40 μL per well. DMSO concentration in each well was 0.25%.
A separate plate, without compounds, with titrations of ssRNA40 and ODN2216 was included in every assay to measure agonist response of each donor's PBMC prep. Assay plates were placed in a tissue culture incubator (37° C., 5% CO2) for 14-16 hrs. After this incubation, the plates were centrifuged and stored at −20° C. until they were assayed.
IL-6 TR-FRET Assay for TLR8 activity: • 1) Cisbio Human IL-6 kit, 20,000 tests (62TNFPEC), and GNF High-Base TC 384 well plates (cat #789163G) were used; • 2) the Anti-TIL-6 Cryptate conjugate and the Anti-IL-6 XL665 conjugate were diluted 1:20 in Reconstitution Buffer; • 3) a 1:1 mixture of 3 μl/well Anti-IL-6 Cryptate conjugate and 3 μl/well Anti-IL-6 XL665 conjugate was prepared; • 4) 6 μl/well HTRF dilution mastermix was added to 6 μl of transferred supernatant samples in proxiplates; • 5) The plates were incubated for 3 hrs at rt in the dark; and • 6) the levels of IL-6 production was measured using an Envision plate reader (665 nm (emmission)/590 nm (excitation)) with HTRF settings and ratiometric read-out: (XL665 emission/Eu Cryptate emission)×10,000. IFNα2b AlphaLISA Assay for TLR7 or TLR9 activity After thawing the assay plates, 6 μL of supernatant samples were transferred to a low-volume AlphaPlate 384SW (Perkin-Elmer). The concentration of IFNα in supernatants was measured using the IFNα2b AlphaLISA Assay (Perkin-Elmer: AL297F). 3 μL of IFNα acceptor beads/biotinylated antibody solution was added first, using laboratory automation. After an hour incubation, […] of streptavidin […] bead solution was added. The plates containing this mixture were incubated in the dark for an hour and read on an appropriate plate reader at reading parameters set by the manufacturer. (Envision, EnSpire: Perkin-Elmer).
`Cc1cc(N2CCc3c(c(C)nn3CC34CCC(N)(CC3)CC4)C2)c2ccncc2n1` [Compound No. 3, 4-((3-methyl-5-(2-methyl-1,7-naphthyridin-4-yl)-4,5,6,7-tetrahydro-1H-pyrazolo[4,3-c]pyridin-1-yl)methyl)bicyclo[2.2.2]octan-1-amine]: the IC50 – broadly, the point on the concentration scale where inhibition reaches its midpoint – turned out to be 54 nM.
The figure for `Cc1cc(N2CCc3c(c(C)nn3CC34CCC(NC5COC5)(CC3)CC4)C2)c2cnn(C)c2n1` [Compound No. 6, N-(4-((5-(1,6-dimethyl-1H-pyrazolo[3,4-b]pyridin-4-yl)-3-methyl-4,5,6,7-tetrahydro-1H-pyrazolo[4,3-c]pyridin-1-yl)methyl)bicyclo[2.2.2]octan-1-yl)oxetan-3-amine] is 19 nM; for `Cc1cc(N2CCc3c(c(C)nn3CC34CCC(NC(=O)[C@@H]5COCCN5)(CC3)CC4)C2)c2cnn(C)c2n1` [Compound No. 8, (S)—N-(4-((5-(1,6-dimethyl-1H-pyrazolo[3,4-b]pyridin-4-yl)-3-methyl-4,5,6,7-tetrahydro-1H-pyrazolo[4,3-c]pyridin-1-yl)methyl)bicyclo[2.2.2]octan-1-yl)morpholine-3-carboxamide] it is 4 nM; for `Cc1cc(N2CCc3c(c(C)nn3CC34CCC(NC(=O)[C@H]5COCCN5)(CC3)CC4)C2)c2cnn(C)c2n1` [Compound No. 9, (R)—N-(4-((5-(1,6-dimethyl-1H-pyrazolo[3,4-b]pyridin-4-yl)-3-methyl-4,5,6,7-tetrahydro-1H-pyrazolo[4,3-c]pyridin-1-yl)methyl)bicyclo[2.2.2]octan-1-yl)morpholine-3-carboxamide] it is 15 nM.
The figure for `Cc1nc(N2CCc3c(c(C)nn3CC34CCC(N5CC6(COC6)C5)(CC3)CC4)C2)c2c(n1)c(C)nn2C` [Compound No. 10, 6-(4-((3-methyl-5-(1,3,5-trimethyl-1H-pyrazolo[4,3-d]pyrimidin-7-yl)-4,5,6,7-tetrahydro-1H-pyrazolo[4,3-c]pyridin-1-yl)methyl)bicyclo[2.2.2]octan-1-yl)-2-oxa-6-azaspiro[3.3]heptane] is 56 nM; for `Cc1nc(N2CCc3c(c(C)nn3CC34CCC(N)(CC3)CC4)C2)c2c(n1)c(C)nn2C` [Compound No. 26, 4-((3-methyl-5-(1,3,5-trimethyl-1H-pyrazolo[4,3-d]pyrimidin-7-yl)-4,5,6,7-tetrahydro-1H-pyrazolo[4,3-c]pyridin-1-yl)methyl)bicyclo[2.2.2]octan-1-amine] it is 644 nM; for `Cc1cc(N2CCc3c(c(C)nn3CC34CCC(N(C)C)(CC3)CC4)C2)c2cnn(C)c2n1` [Compound No. 43, 4-((5-(1,6-dimethyl-1H-pyrazolo[3,4-b]pyridin-4-yl)-3-methyl-4,5,6,7-tetrahydro-1H-pyrazolo[4,3-c]pyridin-1-yl)methyl)-N,N-dimethylbicyclo[2.2.2]octan-1-amine] it is 16 nM.
The figure for `Cc1cc(N2CCc3c(c(C)nn3CC34CCC(N5CCN(C)C(=O)C5)(CC3)CC4)C2)c2cnn(C)c2n1` [Compound No. 104, 4-(4-((5-(1,6-dimethyl-1H-pyrazolo[3,4-b]pyridin-4-yl)-3-methyl-4,5,6,7-tetrahydro-1H-pyrazolo[4,3-c]pyridin-1-yl)methyl)bicyclo[2.2.2]octan-1-yl)-1-methylpiperazin-2-one] is 61 nM; for `Cc1cc(N2CCc3c(c(C)nn3CC34CCC(N5CCN(C)CC5=O)(CC3)CC4)C2)c2cnn(C)c2n1` [Compound No. 108, 1-(4-((5-(1,6-dimethyl-1H-pyrazolo[3,4-b]pyridin-4-yl)-3-methyl-4,5,6,7-tetrahydro-1H-pyrazolo[4,3-c]pyridin-1-yl)methyl)bicyclo[2.2.2]octan-1-yl)-4-methylpiperazin-2-one] it is 21 nM.
As for `Cc1cc(N2CCc3c(c(C)nn3CC34CCC(n5ccnc5)(CC3)CC4)C2)c2cnn(C)c2n1` [Compound No. 119, 1-((4-(1H-imidazol-1-yl)bicyclo[2.2.2]octan-1-yl)methyl)-5-(1,6-dimethyl-1H-pyrazolo[3,4-b]pyridin-4-yl)-3-methyl-4,5,6,7-tetrahydro-1H-pyrazolo[4,3-c]pyridine], the IC50 is 6 nM.
Take `Cc1cc(N2CCc3c(c(C)nn3CC34CCC(NC(=O)CN5CC(F)C5)(CC3)CC4)C2)c2cnn(C)c2n1` [Compound No. 133, N-(4-((5-(1,6-dimethyl-1H-pyrazolo[3,4-b]pyridin-4-yl)-3-methyl-4,5,6,7-tetrahydro-1H-pyrazolo[4,3-c]pyridin-1-yl)methyl)bicyclo[2.2.2]octan-1-yl)-2-(3-fluoroazetidin-1-yl)acetamide]: the IC50 is 12 nM.
The figure for `Cc1cc(N2CCc3c(c(C)nn3CC34CCC(NC(=O)CO)(CC3)CC4)C2)c2cnn(C)c2n1` [Compound No. 135, N-(4-((5-(1,6-dimethyl-1H-pyrazolo[3,4-b]pyridin-4-yl)-3-methyl-4,5,6,7-tetrahydro-1H-pyrazolo[4,3-c]pyridin-1-yl)methyl)bicyclo[2.2.2]octan-1-yl)-2-hydroxyacetamide] is 10 nM.
Regarding `Cc1cc(N2CCc3c(c(C)nn3CC34CCC(NC(=O)CN5CC(O)C5)(CC3)CC4)C2)c2cnn(C)c2n1` [Compound No. 136, N-(4-((5-(1,6-dimethyl-1H-pyrazolo[3,4-b]pyridin-4-yl)-3-methyl-4,5,6,7-tetrahydro-1H-pyrazolo[4,3-c]pyridin-1-yl)methyl)bicyclo[2.2.2]octan-1-yl)-2-(3-hydroxyazetidin-1-yl)acetamide], the IC50 is 6 nM.
For the molecule `[2H]C([2H])([2H])n1ncc2c(N3CCc4c(c(C)nn4CC45CCC(N)(CC4)CC5)C3)cc(C)nc21` [Compound No. 140, 4-((3-methyl-5-(6-methyl-1-(methyl-d3)-1H-pyrazolo[3,4-b]pyridin-4-yl)-4,5,6,7-tetrahydro-1H-pyrazolo[4,3-c]pyridin-1-yl)methyl)bicyclo[2.2.2]octan-1-amine], the IC50 stood at 27 nM.

(Values after US20240376099A1, “COMPOUNDS AND COMPOSITIONS AS INHIBITORS OF ENDOSOMAL TOLL-LIKE RECEPTORS” (Novartis AG, priority 2016, published 2024).)
